Source: the supplement of paper PMC10307832

Legend:
Assay in all cases: relative viability (nuclei count vs DMSO), 5 days (fraction); higher = more cells survive
[1] = compound: CC1CC(=O)N(C2=CN=C(N=C2N1C3CCCC3)NC4=C(C=C(C=C4)C(=O)NC5CCN(CC5)C)OC)C [NPK76-II-72-1] + N=C(N)NC(=N)NCCc1ccccc1 [Phenformin] (partner 250 µM)
How it was run: (§1)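 Lung cancer cell lines, seeded in 1536-well plates, were treated the following day by pin tool with a single drug or with five library-drug doses (not always all listed) in √10 steps on top of a fixed anchor-drug dose. Cells were fixed and nuclei stained in one step after 5 days, and nuclei were counted. Relative viability is the nuclei count for treated wells divided by that for vehicle wells, reported as medians of duplicate plates.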

BI-2536 + Luminespib = compound: CC[C@@H]1C(=O)N(C)c2cnc(Nc3ccc(C(=O)NC4CCN(C)CC4)cc3OC)nc2N1C1CCCC1 [BI-2536] + CCNC(=O)c1noc(-c2cc(C(C)C)c(O)cc2O)c1-c1ccc(CN2CCOCC2)cc1 [Luminespib] (partner 0.01 µM)
How it was run: as §1

BI-2536 + Alpelisib = compound: CC[C@@H]1C(=O)N(C)c2cnc(Nc3ccc(C(=O)NC4CCN(C)CC4)cc3OC)nc2N1C1CCCC1 [BI-2536] + Cc1nc(NC(=O)N2CCC[C@H]2C(N)=O)sc1-c1ccnc(C(C)(C)C(F)(F)F)c1 [Alpelisib] (partner 2 µM)
How it was run: as §1

[2] = compound: CC1CC(=O)N(C2=CN=C(N=C2N1C3CCCC3)NC4=C(C=C(C=C4)C(=O)NC5CCN(CC5)C)OC)C [NPK76-II-72-1] + CC1(C)CCC(c2ccc(Cl)cc2)=C(CN2CCN(c3ccc(C(=O)NS(=O)(=O)c4ccc(N[C@H](CCN5CCOCC5)CSc5ccccc5)c(S(=O)(=O)C(F)(F)F)c4)cc3)CC2)C1 [Navitoclax] (partner 0.5 µM)
How it was run: as §1

Cell Line | relative viability ([1]; first compound 0.01 µM) | relative viability ([1]; first compound 0.03162 µM) | relative viability ([1]; first compound 0.1 µM) | relative viability ([1]; first compound 0.3162 µM) | relative viability ([1]; first compound 1 µM) | relative viability (BI-2536 + Luminespib; first compound 0.03162 µM) | relative viability (BI-2536 + Luminespib; first compound 0.1 µM) | relative viability (BI-2536 + Luminespib; first compound 0.3162 µM) | relative viability (BI-2536 + Luminespib; first compound 1 µM) | relative viability (BI-2536 + Alpelisib; first compound 0.01 µM) | relative viability (BI-2536 + Alpelisib; first compound 0.03162 µM) | relative viability (BI-2536 + Alpelisib; first compound 0.1 µM) | relative viability (BI-2536 + Alpelisib; first compound 0.3162 µM) | relative viability (BI-2536 + Alpelisib; first compound 1 µM) | relative viability ([2]; first compound 0.01 µM) | relative viability ([2]; first compound 0.03162 µM) | relative viability ([2]; first compound 0.1 µM) | relative viability ([2]; first compound 0.3162 µM) | relative viability ([2]; first compound 1 µM) | relative viability (BI-2536 + Luminespib; first compound 0.01 µM)
NCI-H2347 | 0.413 | 0.432 | 0.514 | 0.521 | 0.395 | 0.517 | 0.41 | 0.378 | 0.272 | 1.03 | 0.923 | 0.89 | 0.448 | 0.497 | 0.761 | 0.698 | 0.728 | 0.789 | 0.868 | –
NCI-H2405 | 0.379 | 0.386 | 0.4 | 0.35 | 0.419 | 0.435 | 0.359 | 0.283 | 0.31 | 0.665 | 0.408 | 0.374 | 0.132 | 0.365 | 0.834 | 0.965 | 0.806 | 0.844 | 1.17 | 0.599
NCI-H3122 | 0.374 | 0.378 | 0.389 | 0.378 | 0.38 | 0.0932 | 0.107 | 0.0899 | 0.0757 | 0.877 | 0.662 | 0.354 | 0.198 | 0.203 | 1.01 | 0.988 | 1 | 1.05 | 1.02 | 0.11
PC-3 [JPC-3] | 0.475 | 0.484 | 0.487 | 0.453 | 0.472 | 0.683 | 0.496 | 0.215 | 0.205 | 1.13 | 0.978 | 0.871 | 0.264 | 0.24 | 0.742 | 0.806 | 0.735 | 0.672 | 0.848 | 0.705
PC-14 | 0.562 | 0.462 | 0.585 | 0.585 | 0.628 | 0.171 | 0.111 | 0.107 | 0.108 | 0.951 | 0.891 | 0.877 | 0.0726 | 0.0642 | 1 | 1.06 | 1.03 | 0.948 | 1.07 | 0.116
RERF-LC-KJ | 0.405 | 0.416 | 0.425 | 0.388 | 0.52 | 0.614 | 0.26 | 0.306 | 0.303 | 0.697 | 0.724 | 0.675 | 0.195 | 0.208 | 0.878 | 0.925 | 1.17 | 0.851 | 1.14 | 1.28
SK-LU-1 | 0.517 | 0.585 | 0.662 | 0.528 | 0.537 | 0.2 | 0.167 | 0.174 | 0.169 | 1.03 | 0.507 | 0.317 | 0.28 | 0.244 | 0.747 | 0.996 | 1.31 | 0.168 | 0.838 | 0.216
SK-MES-1 | 0.649 | 0.718 | 0.646 | 0.643 | 0.722 | 0.698 | 0.23 | 0.219 | 0.195 | 0.869 | 0.957 | 0.786 | 0.147 | 0.186 | 1.19 | 1.34 | 1.28 | 1.24 | 1.31 | 0.802
SW 1573 | 0.33 | 0.438 | 0.33 | 0.319 | 0.452 | 0.117 | 0.152 | 0.122 | 0.0874 | 0.821 | 0.842 | 0.791 | 0.162 | 0.123 | 1.03 | 0.973 | 0.812 | 0.948 | 0.988 | 0.123
